Experimental data published in patent publication US20170136008A1, “OXABICYCLOHEPTANES AND OXABICYCLOHEPTENES FOR THE TREATMENT OF OVARIAN CANCER” (priority 2014, published 2017).

Assays:
Type in all cases: cell-based, human
[1] = test system: PEO4 ovarian cancer cell line; assay: MTT cytotoxicity assay, PEO4; details: PEO4; MTT; read-out: IC50, viability of ovarian cancer cell line
Method: (§1) SKOV-3 ovarian cancer cells were purchased from American Type Culture Collection (ATCC) (Manassas, Va.). SKOV-3 cells were cultured in McCoy's 5A medium (ATCC, Manassas, Va.) supplemented with 10% fetal bovine serum and 100 units/mL penicillin G sodium, 100 ug/mL streptomycin sulfate, and 292 μg/ml, L-glutamine (BioWhittaker, Wakersville, Md.). Luciferase-expressing cells were generated by infecting SKOV-3 cells with pCLNCX-luciferase retrovirus (SKOV-3-Luc) as previously reported (Wei, B. R. et al. 2009). Human OVCAR-8 ovarian cancer cells were provided by the National Cancer Institute (part of the NCI-60 collection). The PEO1, PEO4, and PEO6 ovarian cancer cell lines have previously been characterized (Langdon, S. P. et al. 1988) and were kindly provided by Dr. Ian Goldlust (National Center for Advancing Translational Sciences, Shady Grove, Md.). […]
(§2) Cell survival was measured by the 3-(4,5-dimethylthiazol-2-yl)-2,5-diphenyltetrazolium bromide (MTT, Invitrogen) assay. […] Absorbance values were determined at […] on a Spectra Max 250 spectrophotometer (Molecular Devices, Sunnyvale, Calif.). […] Cell viability was analyzed via the MTT assay as described above. […]

[2] = test system: OVCAR-8 PP2Ac shRNA-expressing cells; assay: Cell viability (MTT) assay, OVCAR-8 PP2Ac shRNA; details: OVCAR-8 PP2Ac shRNA
Method: Cell survival was measured by the 3-(4,5-dimethylthiazol-2-yl)-2,5-diphenyltetrazolium bromide (MTT, Invitrogen) assay. Cells were seeded at a density of 5,000 cells per well in 96-well plates and incubated at 37° C. in humidified 5% CO2 for 24 hours. The 50% inhibitory concentration (IC50) values were defined as the drug concentrations required to reduce cellular proliferation to 50% of the untreated control well. […] All MTT assays were carried out according to the manufacturer's instructions (Molecular Probes, Eugen, Oreg.). Absorbance values were determined at […] on a Spectra Max 250 spectrophotometer (Molecular Devices, Sunnyvale, Calif.). All MTT assays were performed in triplicate. […] Cells were treated with both drugs for 72 h. Cell viability was analyzed via the MTT assay as described above. Experiments were performed in triplicate, and the data are presented as a percent mean±SD.
To stably knockdown expression of PP2AC, a pLKO.1-puro plasmid-based […] shRNA targeting the sequence: […] (clone ID:TRCN0000002483, Sigma-Aldrich) was employed (PP2AC-shRNA). Additionally, a non-targeting shRNA plasmid (NT-shRNA) that targets no known human sequence was utilized as a control. […]

[3] = test system: PEO6 ovarian cancer cell line; assay: MTT cytotoxicity assay, PEO6; details: read-out: IC50, viability of ovarian cancer cell line
Method: as §1, §2

[4] = test system: PEO1-Missense (PEO-1m) ovarian cancer cell line; assay: MTT cytotoxicity assay, PEO1-Missense; details: PEO1-Missense; MTT; read-out: IC50, viability of ovarian cancer cell line
Method: as §1, §2

[5] = test system: OVCAR-8 ovarian cancer cells; assay: MTT cytotoxicity assay, OVCAR-8; details: OVCAR8, read-out: IC50, viability of ovarian cancer cell line
Method: as §1, §2

[6] = test system: PEO1-STOP (PEO-1s) ovarian cancer cell line; assay: MTT cytotoxicity assay, PEO1-STOP; details: PEO1-STOP; MTT; read-out: IC50, viability of ovarian cancer cell line
Method: as §1, §2

[7] = test system: SKOV-3 cells; assay: Cell-cycle analysis (FACS), SKOV-3
Method: (§3) For cell-cycle analysis, cells were washed with PBS and fixed overnight in ice-cold 70% ethanol and stored at 4° C. Cells were then centrifuged and resuspended in 100 U RNAse (Sigma-Aldrich), and incubated at 37° C. for 20 min. Propidiumidodide solution (Invitrogen, 500 μL, 50 μg/mL in DPBS) was added to each tube and incubated in the dark at 4° C. overnight. Flow cytometry analysis was performed with CellQuestPro and data analysis was completed with ModFit LT. All data is in triplicate and presented as a percent mean±SD.

[8] = test system: OVCAR-8 cells; assay: Cell-cycle analysis (FACS), OVCAR-8; details: cisplatin 5 μM
Method: as §3

[9] = test system: SKOV-3 ovarian cancer cells; assay: MTT cytotoxicity assay, SKOV-3; details: SK-OV3; MTT; read-out: IC50, viability of ovarian cancer cell line

N.N.[Cl][Pt][Cl] [Cisplatin, cis-[PtCl2(NH3)2], reference compound]
IC50 [1]: 4.3 ± 1.8 µM
sensitivity to cisplatin, PP2Ac knockdown compared to non-targeted control [2]: sensitized
IC50 [3]: 8 ± 1.9 µM
IC50 [4]: 2.1 ± 0.4 µM
IC50 [5]: 7.2 ± 2.3 µM
IC50 [6]: 2.3 ± 0.3 µM
G1 (%) ([7]; 24 h, cisplatin 2 μM): 23.0 ± 0.2%
G2/M (%) ([7]; 24 h, cisplatin 2 μM): 8.4 ± 0.3%
S (%) ([7]; 24 h, cisplatin 2 μM): 68.6 ± 0.1%
G1 (%) ([7]; 24 h, cisplatin 5 μM): 11.6 ± 0.5%
G2/M (%) ([7]; 24 h, cisplatin 5 μM): 13.5 ± 0.7%
S (%) ([7]; 24 h, cisplatin 5 μM): 75.2 ± 1.0%
G1 (%) ([7]; 24 h, cisplatin 18 μM): 49.8 ± 2.3%
G2/M (%) ([7]; 24 h, cisplatin 18 μM): 16.6 ± 1.3%
S (%) ([7]; 24 h, cisplatin 18 μM): 33.6 ± 1.8%
S (%) ([7]; 24 h, cisplatin 18 μM, listed as cisplatin): 33±2%
G1 (%) ([7]; 24 h, cisplatin 20 μM): 67.7 ± 1.2%
G2/M (%) ([7]; 24 h, cisplatin 20 μM): 16.3 ± 0.9%
S (%) ([7]; 24 h, cisplatin 20 μM): 16.0 ± 1.2%
G1 (%) ([7]; 48 h, cisplatin 18 μM): 40.4 ± 0.8%
G2/M (%) ([7]; 48 h, cisplatin 18 μM): 21.2 ± 1.0%
S (%) ([7]; 48 h, cisplatin 18 μM): 38.4 ± 0.5%
G1 (%) ([8]; 24 h): 4.6 ± 2.0%
G2/M (%) ([8]; 24 h): 13.4 ± 0.6%
S (%) ([8]; 24 h): 81.9 ± 1.6%
G1 (%) ([8]; 48 h): 0.85 ± 0.3%
G2/M (%) ([8]; 48 h): 78.5 ± 2.2%
S (%) ([8]; 48 h): 20.7 ± 2.1%
IC50 [9]: 7.6 ± 1.6 µM
